# Experimental data published in patent publication US20190062260A1, “ANTIMICROBIAL COMPOSITIONS, METHODS OF MAKING, AND METHODS OF USE” (priority 2017, published 2019).
# Test: Degradation of compound and release of acrolein, tracked via NMR spectroscopy
# Type: physicochemical
# Details: 50 mM in deuterated water; for % acrolein generated pH 3, 3 days / % degraded pH 3, 3 days: pH 3 (adjusted with deuterium chloride); for % acrolein generated pH 3, 3 days / % degraded pH 3, 3 days / % acrolein generated pH 7, 7 days / % degraded pH 7, 7 days: 25 degrees Celsius
# Description: Degradation of Compound and Release of Acrolein
# n=3, X as defined in the table. Measured at 25 degrees Celsius (room temperature), tracked via NMR spectroscopy. All compounds were prepared at 50 mM in deuterated water, pH adjusted with deuterium chloride.
# n=3, X is Br. Measured at 25 or 70 degrees Celsius, tracked via NMR spectroscopy. All compounds were prepared at 50 mM in deuterated water at pH 7. Measurements were made after 4 hours.
SMILES,"% acrolein generated 25° C. (25° C., pH 7, after 4 hours) [%]","% degraded 25° C. (25° C., pH 7, after 4 hours) [%]","% acrolein generated 70° C. (70° C., pH 7, after 4 hours) [%]","% degraded 70° C. (70° C., pH 7, after 4 hours) [%]","% acrolein generated pH 3, 3 days [%]","% degraded pH 3, 3 days [%]","% acrolein generated pH 7, 7 days [%]","% degraded pH 7, 7 days [%]"
COCCOCCOCCOC(CCBr)OCCOCCOCCOC [Compound 3],0,0,40,85,8,100,12,95
COCCOCCOCCOC(CCCl)OCCOCCOCCOC [Compound 1],–,–,–,–,1,50,0,0
